Like-named read-outs stand apart in the source and are kept apart here.
Experiments:
B. subtilis ATCC-6633 = test: Antibacterial activity, MIC by double-microdilution; assay type: cell-based
Experimental: (§1) Comparative antibacterial activities were determined in two representative strains of Gram-negative (E. coli R477-100) and Gram-positive (B. subtilis ATCC-6633) bacteria, by measuring the MIC values using the double-microdilution method according to the National Committee for Clinical Laboratory Standards (NCCLS) (NCCLS. National Committee for Clinical Laboratory Standards, Performance standards for antimicrobial susceptibility testing. Fifth information supplement: Approved Standard M100-S5; Villanova, Pa.: NCCLS, 1994.).
(§2) In all biological tests, all AGs were in their sulfate salt forms, and the concentrations refer to the free amine form of each AG. The eukaryotic and prokaryotic half-maximal-inhibition values (IC50^Euk and IC50^Pro) were quantified in coupled transcription/translation assays by using active luciferase detection as previously described. Minimal inhibitory concentration (MIC) values were determined by using the double-microdilution method.

[1] = system: cystic fibrosis G542X nonsense mutation; test: Cell-free nonsense mutation suppression dose-response assay, firefly/renilla; assay type: biochemical, rabbit; settings: 0-50 μM, FIGS. 4-7
Experimental: The plasmids were transcribed in vitro and translated using rabbit reticulocytes (TNT mix) and then tested for the expression levels of the firefly and renilla luciferases.
WT plasmids expressed both firefly and renilla luciferases while mutant plasmids expressed only the renilla luciferase due to the stop codon found in the inserted sequence. The readthrough assays were conducted for the tested compounds and the controls by adding the compounds to the in vitro transcription/translation reaction mixture. In case the compounds exerted suppression of the premature nonsense/stop codon mutation, the firefly luciferase was expressed and a fold-change in its expression was observed.
Readthrough activity of Cystic Fibrosis (CF) mutation G542X was tested using the compounds presented in Table 1, and the mutation suppression was calculated based on firefly/renilla expression ratio values, and normalized with respect to the expression level of the WT and the control sample (no tested compound).

E. coli R477-100 = test: Antibacterial activity, MIC by double-microdilution; assay type: cell-based; settings: for MIC: Escherichia coli, R477100, read-out: Antibacterial Activity MIC E. Coli R 477/100
Experimental: as §1, §2

[2] = system: nonsense constructs R3X and R245X (USH1), Q70X (HS), G542X (CF); test: Dual luciferase in vitro readthrough assay, p2Luc plasmids, TNT Reticulocyte Lysate; assay type: biochemical; settings: R3X nonsense mutation construct (USH1), FIG. 10
Excerpt: DNA fragments derived from PCDH15, CFTR, and IDUA cDNAs, including the tested nonsense mutation or the corresponding wild type (wt) codon, and four to six upstream and downstream flanking codons were created by annealing the following pairs of complementary oligonucleotides:
Fragments were inserted in frame into the polylinker of the p2Luc plasmid between either BamHI and SacI (p.R3X and p.R245X) or SalI and SacI (all the rest) restriction sites. For the in vitro readthrough assays, the obtained plasmids, with addition of the tested aminoglycosides were transcribed and translated using the TNT Reticulocyte Lysate Quick Coupled Transcription/Translation System. Luciferase activity was determined after 90 minutes of incubation at 30° C., using the Dual Luciferase Reporter Assay System (Promega™).
Activity was tested using a collection of dual-luciferase reporter plasmids, containing different sequence contests around premature stop codons derived from the PCDH15, CFTR, and IDUA genes that underline USH1, CF, and MPS I-H, respectively. The exemplified nonsense reporters were R3X and R245X for USH1, G542X for CF, and Q70X for MPS I-H.

[3] = Bacillus subtilis, ATCC6633, Table 4, read-out: Antibacterial Activity MIC B. Subtilis ATCC6633
[4] = Bacillus subtilis, ATCC6633, Table 6, read-out: Antibacterial activity MIC B. subtilis ATCC6633

| Compound | MIC (B. subtilis ATCC-6633; [3]) [µM] | G542X mutation suppression (readthrough) activity, dose-response [1] | MIC (E. coli R477-100) | other results |
| --- | --- | --- | --- | --- |
| CC(O)C1O[C@H](O[C@@H]2C(N)C[C@@H](N)C(O)C2O[C@@H]2O[C@H]([C@H](C)N)C(O)C2O)C(N)C(O)[C@@H]1O (single isomer, unassigned) [NB124, reference compound] | 156 | – | – | – |
| CC(C)CN[C@@H]1CC(N)[C@@H](O[C@H]2OC([C@@H](C)O)[C@@H](O)C(O)C2N)C(O)C1O (stereo in doubt) [NB144] | – | notable dose-dependent readthrough activity | – | – |
| C[C@@H](O)C1O[C@H](O[C@@H]2C(N)C[C@@H](NCc3ccccc3)C(O)C2O)C(N)C(O)[C@@H]1O (stereo in doubt) [NB145] | – | notable dose-dependent readthrough activity | – | – |
| C[C@@H](O)C1O[C@H](O[C@@H]2C(N)C[C@@H](NC(=N)N)C(O)[C@H]2O)C(N)C(O)[C@@H]1O (stereo in doubt) [NB150] | – | notable dose-dependent readthrough activity | – | – |
| C[C@@H](O)C1O[C@H](O[C@@H]2C(N)C[C@@H](N)C(O)C2O[C@@H]2O[C@H](CNC(=N)N)C(O)C2O)C(N)C(O)[C@@H]1O (stereo in doubt) [NB151] | – | notable dose-dependent readthrough activity | – | – |
| NC[C@H]1O[C@@H](OC2C(O)[C@H](N)CC(N)[C@H]2O[C@H]2OC(CO)[C@@H](O)C(O)C2N)C(O)C1O (some centres unmarked) [NB30, reference compound] | – | – | 790 µg/mL | MIC (B. subtilis ATCC-6633; [4]): 100 µg/mL |
| C[C@H](N)[C@H]1O[C@@H](OC2C(O)[C@H](N)CC(N)[C@H]2O[C@H]2OC(CO)[C@@H](O)C(O)C2N)C(O)C1O (some centres unmarked) [NB118, reference compound] | – | – | 2660 µg/mL | MIC (B. subtilis ATCC-6633; [4]): 83 µg/mL |
| N[C@H]1[C@@H](O[C@H]2[C@H](O)[C@@H](O)[C@H](N)C[C@@H]2N)O[C@H]([C@H](O)CO)[C@@H](O)[C@@H]1O [NB153, (2R, 3S, 4R, 5R, 6S)-5-amino-6-(((1R, 2R, 3S, 4R, 6S)-4,6-diamino-2,3-dihydroxycyclohexyl)oxy)-2-((R)-1,2-dihydroxyethyl)tetrahydro-2H-pyran-3,4-diol] | 311 | – | > 311 µM | in vitro stop codon suppression (readthrough) activity compared with Compound 1 [2]: dramatically increases its in vitro readthrough activity |
| N[C@H]1[C@@H](O[C@H]2[C@H](O)[C@@H](O)[C@H](N)C[C@@H]2N)O[C@H]([C@@H](O)CO)[C@@H](O)[C@@H]1O [NB155, (2R, 3S, 4R, 5R, 6S)-5-amino-6-(((1R, 2R, 3S, 4R, 6S)-4,6-diamino-2,3-dihydroxycyclohexyl)oxy)-2-((S)-1,2-dihydroxyethyl)tetrahydro-2H-pyran-3,4-diol] | > 375 | – | > 375 µM | in vitro stop codon suppression (readthrough) activity compared with Compound 1 [2]: somewhat higher activity of NB155 to that of Compound 1 |
| gentamicin [reference compound] | – | – | – | MIC (B. subtilis ATCC-6633; Table 4, read-out: Antibacterial Activity MIC B. Subtilis ATCC6633): <0.75 µM; Antibacterial Activity MIC E. Coli R 477/100 (E. coli R477-100; Table 4): 6 µM |

From patent publication US10899785B2, “Aminoglycoside derivatives and uses thereof in treating genetic disorders” (Eloxx Pharmaceuticals Ltd., priority 2015, dated 2021)
